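Method: 48-hour compound exposure of cells in 96-well plates, five concentrations, linear interpolation of endpoints. TGI is the concentration that stops growth completely.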
Experiments:
Assay in all cases: NCI-60 cell line screen, 48 h
OVCAR-4 ovarian = tested on: OVCAR-4 ovarian
UO-31 renal = tested on: UO-31 renal
NCI-H522 lung = tested on: NCI-H522 lung
SF-268 CNS = tested on: SF-268 CNS
NCI-H460 lung = tested on: NCI-H460 lung
HCT-116 colon = tested on: HCT-116 colon
SK-MEL-2 melanoma = tested on: SK-MEL-2 melanoma
MOLT-4 leukemia = tested on: MOLT-4 leukemia
HT29 colon = tested on: HT29 colon
HOP-62 NSCLC = tested on: HOP-62 NSCLC
OVCAR-5 ovarian = tested on: OVCAR-5 ovarian
TK-10 renal = tested on: TK-10 renal
SF-539 CNS = tested on: SF-539 CNS
SR leukemia = tested on: SR leukemia
ACHN renal = tested on: ACHN renal
MALME-3M melanoma = tested on: MALME-3M melanoma
MDA-MB-435 = tested on: MDA-MB-435
SK-MEL-5 melanoma = tested on: SK-MEL-5 melanoma
RXF 393 renal = tested on: RXF 393 renal
K-562 leukemia = tested on: K-562 leukemia

Structure (SMILES) | TGI (OVCAR-4 ovarian) [µM] | TGI (UO-31 renal) [µM] | TGI (NCI-H522 lung) [µM] | TGI (SF-268 CNS) [µM] | TGI (NCI-H460 lung) [µM] | TGI (HCT-116 colon) [µM] | TGI (SK-MEL-2 melanoma) [µM] | TGI (MOLT-4 leukemia) [µM] | TGI (HT29 colon) [µM] | TGI (HOP-62 NSCLC) [µM] | TGI (OVCAR-5 ovarian) [µM] | TGI (TK-10 renal) [µM] | TGI (SF-539 CNS) [µM] | TGI (SR leukemia) [µM] | TGI (ACHN renal) [µM] | TGI (MALME-3M melanoma) [µM] | TGI (MDA-MB-435) [µM] | TGI (SK-MEL-5 melanoma) [µM] | TGI (RXF 393 renal) [µM] | TGI (K-562 leukemia) [µM]
CCOC(=O)C(NC(=O)c1cccc(Cl)c1)(Nc1ccc(S(=O)(=O)Nc2cc(C)nc(C)n2)cc1)C(F)(F)F (stereo unspecified) | > 100 | > 100 | > 100 | > 100 | > 100 | > 100 | > 100 | > 100 | > 100 | > 100 | > 100 | > 100 | > 100 | > 100 | > 100 | > 100 | > 100 | > 100 |  | 
O=c1[nH]nc(CNc2ccc(Cl)cc2Cl)c2ccccc12 | 39.8 | 33.7 | 41.7 | 44.7 | 84.5 | 66.3 | > 100 | > 100 | > 100 | 43 | > 100 | 45.7 | 41 | > 100 | 46.2 | 49.7 |  | 50.6 | 34.9 | > 100
CCOP(=O)(Nc1ccc(-c2ccc(N)cc2)cc1)OCC | > 100 | > 100 | > 100 | > 100 | > 100 | > 100 | > 100 | > 100 | > 100 | > 100 | > 100 | > 100 |  |  | > 100 | > 100 | > 100 | > 100 | 98.8 | > 100
O=C1NC(=S)NC(=O)C1=CC1CC1 | > 100 | > 100 | > 100 | > 100 | > 100 | > 100 | > 100 | > 100 | > 100 | > 100 | > 100 | > 100 | > 100 | > 100 | > 100 | > 100 |  | > 100 | > 100 | > 100
CC(C)(C)OC(=O)NCCC1CNc2ccccc21 (stereo unspecified) | > 100 | > 100 | > 100 | > 100 | > 100 | > 100 | > 100 | > 100 | > 100 | > 100 | > 100 | > 100 |  |  | > 100 | > 100 | > 100 | > 100 | > 100 | > 100
Cc1oc2nc(N(C)C)nc(NN)c2c1C | > 100 | > 100 | > 100 | > 100 | > 100 | > 100 | > 100 | > 100 | > 100 | > 100 | > 100 | > 100 | > 100 |  | > 100 |  | > 100 | > 100 | > 100 | > 100
CSc1nc(-c2ccccc2)nc(C(C#N)C#N)n1 | > 100 | > 100 | > 100 | > 100 |  | > 100 | > 100 | > 100 | > 100 | > 100 | > 100 | > 100 | > 100 |  | > 100 | > 100 | > 100 | > 100 | > 100 | 
Cc1c(C(=O)Nc2ccccc2)nnn1-c1ccnc2cc(C(F)(F)F)ccc12 | > 100 | > 100 | > 100 | > 100 | > 100 | > 100 | > 100 | 79.6 | > 100 |  | > 100 | > 100 | > 100 |  | > 100 | > 100 | > 100 | 52.6 | > 100 | > 100
O=C1c2cn[nH]c2N=C(Nc2ccccc2)C1N=Cc1ccc([N+](=O)[O-])cc1 (stereo unspecified) | > 10 | > 10 | > 10 | > 10 | > 10 | > 10 |  | > 10 | > 10 |  | > 10 | > 10 | > 10 | > 10 | > 10 | > 10 | > 10 | > 10 |  | > 10
CN1N=C2c3ccccc3OC(c3ccccc3)[C@H]2C1c1ccccc1 (stereo partly specified) | > 100 | > 100 | > 100 | > 100 | > 100 | > 100 | > 100 | > 100 | > 100 | > 100 | > 100 | > 100 | > 100 | > 100 | > 100 | 78.3 |  |  | 88.5 | > 100
CC12C3CC4C5CC(C(C53)[C@@H]1NCc1ccccc1)C42 (stereo partly specified) | > 100 | > 100 | > 100 | > 100 | > 100 | > 100 | > 100 | > 100 | > 100 | > 100 | > 100 | > 100 | > 100 | > 100 | > 100 | > 100 |  | > 100 | > 100 | > 100
COc1ccc(/C=C2/SC(=Nc3ccccc3)N(NC(=O)Cc3ccccc3)C2=O)c(OC)c1 | > 100 | > 100 |  | > 100 | > 100 | > 100 | > 100 | > 100 | > 100 | > 100 | > 100 | > 100 | > 100 |  | > 100 |  | > 100 | > 100 | > 100 | > 100
C=CCCCN1CCCCC1=S | > 100 | > 100 | > 100 |  | > 100 | > 100 | > 100 | > 100 | > 100 | > 100 | > 100 | > 100 | > 100 | > 100 | > 100 | > 100 |  | > 100 | > 100 | > 100
CC(C)(CCl)NC(=O)c1cccc(C(=O)NC(C)(C)CCl)n1 | > 100 | > 100 | > 100 | > 100 | > 100 | > 100 | > 100 | > 100 | > 100 | > 100 | > 100 | > 100 | > 100 | > 100 | > 100 | > 100 |  | > 100 | > 100 | > 100
COc1cccc(C=O)c1[O-].COc1cccc(C=O)c1[O-].[Zn+2] | > 100 | 90.7 | > 100 | > 100 | > 100 | > 100 | > 100 | > 100 | > 100 | > 100 | > 100 | > 100 | > 100 | > 100 | > 100 | > 100 |  | > 100 | > 100 | > 100
CCCCCCCC(=O)OCC1OC(n2cc(F)c(=O)[nH]c2=O)C(N)C(O)C1O (stereo unspecified) | > 100 | > 100 | > 100 | > 100 | > 100 | > 100 | > 100 | > 100 | > 100 | > 100 | > 100 |  | > 100 | > 100 | > 100 | > 100 |  | > 100 | > 100 | > 100
CCOC(=O)/C(=C\c1cn(C(C)=O)c2ccccc12)P(C)(=O)OCC (stereo unspecified) |  | > 100 | 67.2 | 50.5 |  | > 100 | > 100 | > 100 | > 100 | > 100 | > 100 |  | 45.1 | > 100 | > 100 | > 100 | > 100 | > 100 |  | > 100
COn1oc(=O)c2ccccc21 | > 100 | > 100 | > 100 | > 100 | > 100 | > 100 | > 100 | > 100 | > 100 | > 100 | > 100 | > 100 | > 100 |  | > 100 | > 100 | > 100 | > 100 | > 100 | > 100
NNC(=O)CC(=O)Nc1ccc(S(=O)(=O)c2ccc(NC(=O)CC(=O)NN)cc2)cc1 | > 100 | > 100 | > 100 | > 100 | > 100 | > 100 | > 100 | > 100 | > 100 | > 100 | > 100 | > 100 | > 100 |  | > 100 |  | > 100 | > 100 | > 100 | > 100
Cc1nn(C(=O)Cc2ccccc2)c2c1C(c1ccc([N+](=O)[O-])cc1)SC(N)=N2 (stereo unspecified) |  |  | > 100 | > 100 | > 100 | > 100 |  | > 100 | > 100 | > 100 |  | > 100 | > 100 | > 100 | > 100 | > 100 | > 100 | > 100 |  | > 100
CCCCc1nc(C)oc1C(C)C | > 100 | > 100 | > 100 | > 100 | > 100 | > 100 |  | > 100 | > 100 | > 100 | > 100 | > 100 | > 100 |  | > 100 | > 100 | > 100 | > 100 | > 100 | > 100
